Earlier results in US20240315962A1, “EXTENDED RELEASE COMPOSITIONS COMPRISING PYRIDOSTIGMINE” (priority 2020, published 2024).

## CN(C)C(=O)Oc1ccc[n+](C)c1 [pyridostigmine]
NDA #020414
  bioavailability: 10-20%
oral
  elimination half-life: 3 to 5 h
  time-to-maximum peak plasma concentration: 1 to 2 h
